Converted amounts (≈) assume the structure as drawn. “And” between values parts separate entries of the source, which are not always exact repeats. Equal values may be shown once.
Tests used:
[1] = biological target: T1, Albumax medium (lipid rich bovine serum albumin) (Bos taurus, UniProt P02769); assay: Binding in Albumax medium via ultracentrifugation; type: in vitro ADME; conditions: bovine, isolated protein
T1 construct: purchased Gibco, Thermo Fisher Scientific
Procedure: An ultracentrifugation method adapted from a previous publication was initially used to assess plasma protein binding and binding in the other media. […] Additional ultracentrifuge tubes containing spiked matrix were maintained at 37 °C, 5% or 10% CO2 or normal atmosphere conditions, with aliquots being taken within 0.5 h of the start and at the end of ultracentrifugation to serve as controls for the assessment of stability and to obtain a measure of the total concentration (Ctotal). Following ultracentrifugation, the pH was checked and an aliquot of protein-free supernate was taken from each ultracentrifuge tube for determination of the unbound concentration (Cunbound).
Total matrix and protein free samples were analysed using a matrix matching approach whereby each sample was mixed in a 1:1 ratio with the opposite blank medium (i.e. blank total matrix or blank protein free buffer). For example, plasma samples were mixed with blank pH 7.4 buffer whereas plasma supernatant samples were mixed with blank plasma. Each of the sample sets were then assayed against a common calibration curve prepared in a 1:1 mixture of total matrix and protein free pH 7.4 buffer. […] The standard deviation for fu was calculated using the propagation of errors approach as described previously. The potential for compound degradation was assessed by comparing the average value for Ctotal at the start and end of the experiment.

CYP1A2 = biological target: T2, CYP1A2 (Homo sapiens, UniProt P05177); assay: Cytochrome P450 inhibition in human liver microsomes; conditions: for CYP1A2 % inhibition at max conc: microsomes
T2 sequence (P05177 1-516): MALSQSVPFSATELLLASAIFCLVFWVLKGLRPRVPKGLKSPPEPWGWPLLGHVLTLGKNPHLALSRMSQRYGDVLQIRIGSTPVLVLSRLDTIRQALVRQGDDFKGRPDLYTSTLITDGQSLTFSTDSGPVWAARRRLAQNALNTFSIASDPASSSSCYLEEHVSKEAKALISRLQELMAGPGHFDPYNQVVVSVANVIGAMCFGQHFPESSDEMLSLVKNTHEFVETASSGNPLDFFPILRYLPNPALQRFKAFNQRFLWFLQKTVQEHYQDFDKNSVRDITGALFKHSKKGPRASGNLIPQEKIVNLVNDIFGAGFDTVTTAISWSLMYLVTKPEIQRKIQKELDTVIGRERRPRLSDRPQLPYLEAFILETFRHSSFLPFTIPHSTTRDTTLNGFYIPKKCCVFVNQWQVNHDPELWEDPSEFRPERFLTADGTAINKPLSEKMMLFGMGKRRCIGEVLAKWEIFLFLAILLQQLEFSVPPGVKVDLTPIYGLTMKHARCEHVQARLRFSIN
In short: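 Human liver microsomes were incubated with an isoform-specific probe substrate, and formation of the CYP-mediated metabolite was measured by LC–MS after quenching in ice-cold acetonitrile with diazepam as internal standard. Inhibition was expressed as percent reduction in metabolite formation versus an uninhibited control.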

[2] = Solubility limited absorbable dose (SLAD) calculation with predicted human jejunal Peff; conditions: for solubility: FaSSIF; for An (absorption number): Peff × tres/R, minimum 1; for SLAD: Ssi × V (500 mL) × Mp; for Permeability classification: based on ref 80 and control compounds; for Predicted human Peff: from Caco-2 Papp via calibration plot
From the text: Predicted Peff values were obtained from a calibration plot of literature Peff values vs measured Caco-2 Papp using either buffer or plasma as the transport medium (see Results section).

[3] = Solubility in biorelevant media; conditions: thermodynamic from solid; for solubility at 1 h: 37 °C, fassgf or other biorelevant
Procedure: Solubility of each active pharmaceutical ingredient was evaluated at 37 °C in pH 7.4 phosphate buffered saline (prepared as described for the partitioning experiments), fasted (FaSSIF-V2) and fed (FeSSIF-V2) state simulated intestinal fluids and fasted state simulated gastric fluid (FaSSGF) as described by Jantratid et al.. […] Samples were vortexed and placed in a 37 °C incubator on an orbital mixer (IKA® VXR basic Vibrax® orbital mixer) set at 600 rpm. Sampling times were 1 h for FaSSGF or 5–6 h for FaSSIF-V2, FeSSIF-V2, and PBS. These times were used to reflect the maximal likely residence times within the stomach and small intestine, respectively. Sampling was carried out by centrifuging each sample at 10,000 rpm for 3 min, transferring 300 µL aliquots into fresh Eppendorf tubes and centrifuging these tubes again at 10,000 rpm for 3 min. Triplicate aliquots of the supernatant were then removed and diluted 1:2 in 50% aqueous methanol and then again in 50% aqueous acetonitrile to be within the analytical concentration range. Samples were analysed by LC–MS along with calibration standards (Additional file 1: Table S2).

[4] = phosphate buffered saline pH 7.4, 37 °C, pH 7.4, aqueous buffer

T1 sequence (P02769 25-607): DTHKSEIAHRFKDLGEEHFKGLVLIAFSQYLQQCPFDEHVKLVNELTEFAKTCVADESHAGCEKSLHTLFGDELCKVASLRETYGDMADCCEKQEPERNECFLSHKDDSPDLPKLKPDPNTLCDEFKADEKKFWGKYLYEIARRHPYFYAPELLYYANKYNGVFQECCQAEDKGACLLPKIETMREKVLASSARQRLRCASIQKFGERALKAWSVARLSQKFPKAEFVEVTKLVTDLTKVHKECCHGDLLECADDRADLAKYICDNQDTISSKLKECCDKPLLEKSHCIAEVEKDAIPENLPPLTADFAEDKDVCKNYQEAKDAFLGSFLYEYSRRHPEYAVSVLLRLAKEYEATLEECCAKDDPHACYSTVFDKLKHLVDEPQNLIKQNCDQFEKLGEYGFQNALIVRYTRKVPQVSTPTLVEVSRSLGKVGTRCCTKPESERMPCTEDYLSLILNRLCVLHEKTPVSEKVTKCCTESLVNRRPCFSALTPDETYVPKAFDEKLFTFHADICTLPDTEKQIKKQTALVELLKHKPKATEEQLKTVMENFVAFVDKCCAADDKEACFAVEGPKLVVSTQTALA

CO[C@H]1O[C@@H]2O[C@@]3(C)CC[C@H]4[C@H](C)CC[C@@H]([C@H]1C)[C@@]24OO3 [Artemether]
fraction unbound at […], 500 ng/mL ([1]; pH 7.4): 0.46 ± 0.039
IC50 (CYP1A2): > 20 µM
CYP1A2 % inhibition at max conc (CYP1A2): nmi
solubility [2]: 166 µg/mL (≈ 556 µM)
An (absorption number) [2]: 4.7
SLAD [2]: 388 mg
Permeability classification [2]: High (> 85% absorption (high))
Predicted human Peff [2]: 3.9 10^−4 cm/s
solubility at 1 h ([3]; FaSSGF): 95 µg/mL and 320 µM
solubility ([3]; FaSSIF-V2, 37 °C, fassif): 166 µg/mL and 556 µM
solubility ([3]; FeSSIF-V2, 37 °C, fessif): 1040 µg/mL and 3480 µM
solubility [3, 4]: 109 µg/mL and 365 µM

O=C1C(O)=C([C@H]2CC[C@H](c3ccc(Cl)cc3)CC2)C(=O)c2ccccc21 [Atovaquone]
IC50 (CYP1A2): > 20 µM
CYP1A2 % inhibition at max conc (CYP1A2): nmi
solubility [2]: 1.83 µg/mL (≈ 4.99 µM)
An (absorption number) [2]: 13
SLAD [2]: 12 mg
Permeability classification [2]: High (> 85% absorption (high))
Predicted human Peff [2]: 11 10^−4 cm/s
solubility at 1 h ([3]; FaSSGF): 0.26 µg/mL and 0.71 µM
solubility ([3]; FaSSIF-V2, 37 °C, fassif): 1.83 µg/mL and 4.99 µM
solubility ([3]; FeSSIF-V2, 37 °C, fessif): 6.41 µg/mL and 17.5 µM
solubility [3, 4]: < 0.05 µg/mL and < 0.1 µM

CC[C@H]1OC(=O)[C@H](C)[C@@H](O[C@H]2C[C@@](C)(OC)[C@@H](O)[C@H](C)O2)[C@H](C)[C@@H](O[C@@H]2O[C@H](C)C[C@H](N(C)C)[C@H]2O)[C@](C)(O)C[C@@H](C)CN(C)[C@H](C)[C@@H](O)[C@]1(C)O [Azithromycin]
fraction unbound at […], 500 ng/mL ([1]; pH 7.4): 0.76 ± 0.065
IC50 (CYP1A2): > 20 µM
CYP1A2 % inhibition at max conc (CYP1A2): nmi
An (absorption number) [2]: 1.0
SLAD [2]: 720 mg
Permeability classification [2]: Low (< 50% absorption (low))
Predicted human Peff [2]: 0.16 10^−4 cm/s
solubility at 1 h ([3]; FaSSGF): 1180 µg/mL and 1570 µM
solubility ([3]; FaSSIF-V2, 37 °C, fassif): 1440 µg/mL and 1930 µM
solubility ([3]; FeSSIF-V2, 37 °C, fessif): > 2000 µg/mL and > 2670 µM
solubility [3, 4]: > 2000 µg/mL and > 2670 µM

CC(C)NC(=N)NC(=N)Nc1ccc(Cl)c(Cl)c1 [Chlorproguanil]
fraction unbound at […], 500 ng/mL ([1]; pH 7.4): 0.5 ± 0.02
IC50 (CYP1A2): > 20 µM
CYP1A2 % inhibition at max conc (CYP1A2): nmi
solubility [2]: 1100 µg/mL (≈ 3820 µM)
An (absorption number) [2]: 1.8
SLAD [2]: 998 mg
Permeability classification [2]: High (> 85% absorption (high))
Predicted human Peff [2]: 1.5 10^−4 cm/s
solubility at 1 h ([3]; FaSSGF): > 2000 µg/mL and > 6940 µM
solubility ([3]; FaSSGF, FaSSIF-V2, FeSSIF-V2 and PBS pH 7.4, 37 °C, pH 7.4, aqueous buffer): > 2000 µg/mL
solubility ([3]; FaSSIF-V2, 37 °C, fassif): 1100 µg/mL and 3810 µM
solubility ([3]; FeSSIF-V2, 37 °C, fessif): 1670 µg/mL and 5780 µM
solubility [3, 4]: 1420 µg/mL and 4930 µM

C[C@H]1[C@@H](O)O[C@@H]2O[C@@]3(C)CC[C@H]4[C@H](C)CC[C@@H]1[C@@]24OO3 [Dihydroartemisinin]
fraction unbound at […], 500 ng/mL ([1]; pH 7.4, instability evident, estimate only): 0.34 ± 0.018
IC50 (CYP1A2): 11 µM
Ki (CYP1A2): 6.2 µM
An (absorption number) [2]: 5.2
SLAD [2]: 413 mg
Permeability classification [2]: High (> 85% absorption (high))
Predicted human Peff [2]: 4.4 10^−4 cm/s
solubility at 1 h ([3]; FaSSGF): 140 µg/mL and 492 µM

Source: PMC6941357, “An in vitro toolbox to accelerate anti-malarial drug discovery and development” (Malaria Journal, 2020)
